Consider 19 molecules from patent US20040077639A1, “Methods for the treatment of respiratory diseases and conditions using a selective iNOS inhibitor” (priority 2002, published 2004).

Entries after “also recorded” stand apart in the source; their conditions may differ. Structures can show the parent of a compound that is named as a salt. Where two headings read alike, the source gives them in different places.

In one series the target is i-NOS (Homo sapiens, UniProt P35228). As to the kind of experiment: Comparison of i-NOS inhibition with NIL amide and NIL dimethylamide. The format is biochemical.
Sequence of i-NOS (P35228 whole entry): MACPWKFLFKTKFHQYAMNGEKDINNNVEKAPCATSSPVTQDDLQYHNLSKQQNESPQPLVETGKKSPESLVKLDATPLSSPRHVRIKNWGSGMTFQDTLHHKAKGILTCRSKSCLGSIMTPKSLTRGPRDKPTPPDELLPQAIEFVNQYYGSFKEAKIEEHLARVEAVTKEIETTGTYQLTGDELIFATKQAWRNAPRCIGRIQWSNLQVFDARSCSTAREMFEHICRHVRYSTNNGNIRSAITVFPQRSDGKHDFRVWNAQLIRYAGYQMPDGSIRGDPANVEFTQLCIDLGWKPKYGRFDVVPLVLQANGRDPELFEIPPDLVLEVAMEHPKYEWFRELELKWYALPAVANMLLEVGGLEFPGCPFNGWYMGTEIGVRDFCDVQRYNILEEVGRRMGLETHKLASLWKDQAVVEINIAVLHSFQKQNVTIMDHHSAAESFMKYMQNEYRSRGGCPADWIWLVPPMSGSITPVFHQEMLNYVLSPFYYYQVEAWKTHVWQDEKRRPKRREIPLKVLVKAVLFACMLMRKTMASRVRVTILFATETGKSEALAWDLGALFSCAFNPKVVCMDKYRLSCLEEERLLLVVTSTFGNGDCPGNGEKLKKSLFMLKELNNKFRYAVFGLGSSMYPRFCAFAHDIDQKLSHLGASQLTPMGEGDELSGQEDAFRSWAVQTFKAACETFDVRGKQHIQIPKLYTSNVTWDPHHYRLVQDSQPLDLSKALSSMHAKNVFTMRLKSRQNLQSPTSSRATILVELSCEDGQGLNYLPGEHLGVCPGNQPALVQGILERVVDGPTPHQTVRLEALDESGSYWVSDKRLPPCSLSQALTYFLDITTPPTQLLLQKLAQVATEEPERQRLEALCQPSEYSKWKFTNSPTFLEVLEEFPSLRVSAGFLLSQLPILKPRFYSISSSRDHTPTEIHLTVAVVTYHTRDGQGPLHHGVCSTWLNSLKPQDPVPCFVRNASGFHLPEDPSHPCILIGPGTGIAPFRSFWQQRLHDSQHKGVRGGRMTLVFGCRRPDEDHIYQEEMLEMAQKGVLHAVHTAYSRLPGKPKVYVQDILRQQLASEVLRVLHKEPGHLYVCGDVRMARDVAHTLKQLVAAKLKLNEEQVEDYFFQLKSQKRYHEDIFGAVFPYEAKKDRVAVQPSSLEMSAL
Series [1] relates to nitrite production in human cartilage explants. As to the kind of experiment: Human cartilage explant assay (nitrite production after IL-1β). The format is cell-based. As to conditions: inhibition of nitrite production, IL-1β-stimulated explants. As to the method: Human cartilage Explant Assay
Bone pieces are rinsed twice with Dulbecco's Phosphate Buffered Saline (GibcoBRL) and once with Dulbecco's Modified Eagles Medium (GibcoBRL) and placed into a petri dish with phenol red free Minimum Essential Medium (MEM) (GibcoBRL). Cartilage was cut into small explants of approximately 15-45 mg in weight and one or two explants per well are placed into either 96 or 48 well culture plates with 200-500 μL of culture media per well. The culture media was either a custom modification of Minimum Essential Medium(Eagle) with Earle's salts (GibcoBRL) prepared without L-Arginine, without L-Glutamine and without phenol red or a custom modification of serumless Neuman and Tytell (GibcoBRL) medium prepared without L-arginine, without insulin, without ascorbic acid, without L-glutamine and without phenol red. Both are supplemented before use with 100 μM L-Arginine (Sigma), 2 mM L-glutamine, 1×HL-1 supplement (BioWhittaker), […] ascorbic acid (Sigma) and 150 pg/ml recombinant human IL-1[…] (RD Systems) to induce nitric oxide synthase. Compounds are then added in 10 μL aliquots and the explants incubated at 37° C. with 5% CO2 for 18-24 hours. The day old supernatant is then discarded and replaced with fresh culture media containing recombinant human IL-1β and compound and incubated for another 20-24 hours. […] All samples are done in quadruplicate. Unstimulated controls are cultured in media in the absence of recombinant human IL-1β. IC50 values (Table I) are determined from plotting the percent inhibition of nitrite production at six different concentrations of inhibitor.

Another series relates to airway inflammation. Particulars: murine model of allergic asthma; by down-regulation of chemokine expression; cited from earlier work.
Series [2] concerns LPS-induced increase in plasma nitrite/nitrate levels. As to the kind of experiment: In vivo assay: endotoxin (LPS)-treated rats, plasma nitrite/nitrate. The arrangement: species or system rat. Particulars: oral administration, plasma nitrite/nitrate 5 hours post-treatment. How it is done:
Plasma nitrite/nitrate levels can be determined 5 hours post-treatment.

In series [3] the test system is exhaled breath nitric oxide (NO). Description: Clinical study: exhaled breath NO after single oral dose. It is filed as in vivo, human. As to the method: (§1) A single center study was performed at the National Heart and Lung Institute (NHLI) Clinical Studies Unit in London, UK. The clinical protocol was submitted and accepted by the Ethics Committee of the Royal Brompton Hospital Trust, and the study was carried out according to Good Clinical Practice standards. Each subject provided written informed consent.
(§2) Twenty-four, adult, healthy volunteers and 24 patients with mild asthma participated in this study. All subjects were lifelong non-smokers. Asthma patients (n=24) had mild asthma according to American Thoracic Society Criteria, with medication on an as required basis with inhaled albuterol only. […] All asthmatic patients had baseline exhaled breath NO levels of >15 parts per billion (ppb). Healthy control (n=24) subjects were matched for age and sex, and had no clinically significant disease. Healthy subjects were required to have baseline exhaled NO levels between 4 and 9 ppb.
The study included 2 panels of healthy volunteers and asthmatic patients who received in a double-blind, randomized manner, a single dose of oral compound NN or placebo. The study was carried out in two phases according to the dose of compound NN under investigation. […] The study evaluated the tolerability and pharmacokinetics of orally-administered compound NN and monitored levels of exhaled breath NO.
Measurement of exhaled NO: Exhaled NO was measured using a chemoluminescence analyzer (Logan 2000, Rochester, UK) and methods in accordance with International Guidelines. […] Two successive recordings were taken, and the average value was calculated.
Statistical methods for clinical data: Exhaled NO data, including change from baseline and the percentage change, were tested for normality using the Shapiro-Wilks test. […] The area under the curve (AUC) for the change from baseline and the percentage change, and the differences between active and placebo were calculated. […]

Series [4] is described as follows: Clinical study: tolerability, FEV1, blood pressure, heart rate, laboratory parameters. The format is in vivo, human. As to the method: as §1, §2
The study included 2 panels of healthy volunteers and asthmatic patients who received in a double-blind, randomized manner, a single dose of oral compound NN or placebo. The study was carried out in two phases according to the dose of compound NN under investigation. The first panel consisted of patients with mild-to-moderate asthma (n=12) and healthy subjects (n=12) who received single doses of 20 mg of compound NN and placebo, while the second panel of mild-to-moderate asthmatics (n=12) and healthy subjects (n=12) received single doses of 200 mg of compound NN and placebo. No patient or subject participated in both panels of this study. Evaluation of the first panel was completed before moving on to the second panel. The study evaluated the tolerability and pharmacokinetics of orally-administered compound NN and monitored levels of exhaled breath NO.
Forced expiratory volume in 1 sec (FEV1) and heart rate data had no significant deviations from normality using the Shapiro-Wilks test, therefore parametric statistical methods were used, and the significance of the change from baseline was tested using a paired […]. […]

For the next series, the system named is exhaled NO. Particulars: high doses, literature; cited from earlier work.
The mark [5] stands for this setting: Rattus norvegicus, read-out: ED50.

For the molecule “2S-amino-6-[(1-iminoethyl)amino]-N-(1H-tetrazol-5-yl) hexanamide, hydrate, dihydrochloride [Example NN]”, the “selectivity compared with NIL amide or NIL dimethylamide” value at i-NOS was “more selective”.

The IC50 is the concentration that gives 50% inhibition. For the molecule `CC(=N)NCC(F)=CCC[C@H](N)C(=O)O` (mixture of isomers) [Example B, (2S,5E/Z)-2-amino-6-fluoro-7-[(1-iminoethyl)amino]-5-heptenoic acid, Dihydrochloride], the IC50 in series [1] (Homo sapiens) came out at 0.2 µM. That is a sub-micromolar value.

For `CC1CCN=C(N)S1` (stereo not shown) [2-amino 5,6-dihydro 6-methyl 4H-1,3-thiazine], the “effect on airway inflammation” value in the series on airway inflammation is recorded as “suppressed airway inflammation”.

In general, ED50 refers to the midpoint of the dose-response relation. Take `CC(=N)NC/C(F)=C\CC[C@H](N)C(=O)O` [Example A, (2S,5E)-2-amino-6-fluoro-7-[(1-iminoethyl)amino]-5-heptenoic acid, dihydrochloride, monohydrate]: in series [1] (Homo sapiens), inhibition was half-maximal at 0.1 µM (IC50). The ED50 is under 0.1 mg/kg in series [2] (setting [5]) and under 0.1 mg/kg in series [2] (dihydrochloride, monohydrate).

Turning to `CC(=N)NC/C(F)=C/CC[C@H](N)C(=O)O` [Example D, (2S,5Z)-2-amino-6-fluoro-7-[(1-iminoethyl)amino]-5-heptenoic acid, trihydrochloride, dihydrate], the IC50 in series [1] (Homo sapiens) was 2.5 µM. In addition, the 50% effective dose (ED50) in series [2] (setting [5]) was over 10 mg/kg.

What is called melting point is the temperature of the solid-liquid transition. Molecule `CC(=NO)NC/C(F)=C\CC[C@H](N)C(=O)O` [Example G, (2S,5E)-2-amino-6-fluoro-7-[(1-hydroximinoethyl)amino]-5-heptenoic acid] had a melting point of 198 to 200 °C. Further, the 50% effective dose (ED50) in series [2] (setting [5]) is under 0.1 mg/kg.

For `CC(=N)NC/C(F)=C\CC[C@H](N)C(=O)Nc1nnn[nH]1` [Example H, (2S,5E)-2-amino-6-fluoro-7-[(1-iminoethyl)amino]-N-(1H-tetrazol-5-yl) 5-heptenamide, Dihydrochloride], the ED50 in series [2] (setting [5]) was under 0.3 mg/kg.

In series [1] (Homo sapiens), `CC(=N)NC/C(F)=C\CC[C@](C)(N)C(=O)O` [Example HH, (2S,5E)-2-amino-2-methyl-6-fluoro-7-[(1-iminoethyl)amino]-5-heptenoic acid, Dihydrochloride] came in with an IC50 of 0.4 µM. The ED50 in series [2] (setting [5]) came to 0.4 mg/kg.

For `COC[C@](N)(CSCCNC(C)=N)C(=O)O` [Example J, 2-[[[2-[(1-Iminoethyl)amino]ethyl]thio]methyl]-O-methyl-D-serine, Dihydrochloride], the concentration for half-maximal inhibition (IC50) in series [1] is 8.2 µM.

`CC(=N)NC/C=C\CC[C@](C)(N)C(=O)O.Cl.Cl` [Example LL, (2S,5Z)-2-amino-2-methyl-7-[(1-iminoethyl)amino]-5-heptenoic acid, Dihydrochloride] returned an IC50 in series [1] (Homo sapiens) of 0.8 µM. The 50% effective dose (ED50) in series [2] (setting [5]) was determined as 0.3 mg/kg.

Turning to `CC(=N)NCCCC[C@H](N)C(=O)Nc1nnn[nH]1` [Example NN, 2S-amino-6-[(1-iminoethyl)amino]-N-(1H-tetrazol-5-yl) hexanamide, hydrate, dihydrochloride], the “change in exhaled NO” value in series [3] (20 mg and 200 mg single oral doses, healthy volunteers and asthmatics, 72 hour assessment, FIG. 3, hydrate, dihydrochloride) was “rapid reduction in exhaled NO; also recorded: of rapid onset and dose-related”. In series [3] (200 mg single oral dose, asthma), the “inhibition of exhaled NO” value is listed as 95%. For the same molecule, the “duration of decrease in exhaled breath NO” value in series [3] (single oral dose, healthy volunteers and asthmatics) stood at 3 days. Also, the “effects on heart rate, blood pressure and FEV1” value in series [4] (200 mg oral, FIG. 4) is “no apparent effects”. Also, the “effect on haematology or blood biochemistry” value in series [4] (single oral dose) is listed as “no effect”. In addition, in series [4] (single oral dose, healthy volunteers and asthmatics, FIG. 4), the tolerability entry was “well tolerated”. Moreover, the “i-NOS inhibitory potency compared with NIL amide or NIL dimethylamide” value at i-NOS is on record as “more potent”.

Molecule `N=C1CCCC[C@H](CCCC[C@@H](N)C(=O)O)N1` [Example V, (α,2S)-.α-aminohexahydro-7-imino-1H-azepine-2-hexanoic acid, Trihydrate Hydrochloride] had a 50% inhibitory concentration (IC50) in series [1] (Homo sapiens) of under 10 µM. In addition, in series [2] (setting [5]), the ED50 is under 3 mg/kg.

Molecule `N=C1CCCC[C@@H](CCCC[C@H](N)C(=O)O)N1` [Example W, (αS,2R)-α-aminohexahydro-7-imino-1 H-azepine-2-hexanoic acid, Trihydrate Hydrochloride] gave an IC50 in series [1] (Homo sapiens) of over 30 µM. The 50% effective dose (ED50) in series [2] (setting [5]) was over 10 mg/kg.

Molecule `N=C1CCCC[C@H](CCCC[C@H](N)C(=O)O)N1` [Example X, (αS,2S)-α-aminohexahydro-7-imino-1H-azepine-2-hexanoic acid, Trihydrate Hydrochloride] returned an IC50 in series [1] of under 10 µM.

`Cl.N=C1CCCC[C@H](CCCC[C@@H](N)C(=O)O)N1.O.O.O` [Example Y, (αR,2S)-α-aminohexahydro-7-imino-1H-azepine-2-hexanoic acid, Trihydrate Hydrochloride]: the median effective dose (ED50) in series [2] (setting [5]) is under 3 mg/kg.

Molecule `N=C1CCCC[C@H](CCCC[C@H](N)C(=O)O)N1` [Example Z, (αS,2S)-α-aminohexahydro-7-imino-1H-azepine-2-hexanoic acid, Trihydrate Hydrochloride] displayed an IC50 in series [1] (Homo sapiens) of under 10 µM.

Consider `COC(=O)[C@@H](N)CCCNC(=N)N[N+](=O)[O-]` [L-NAME], for which the “inhibition of exhaled NO” value in the series with exhaled NO is reported as “approximately 70%”. Also, the “effect on airway inflammation” value with airway inflammation was “suppressed airway inflammation”.

Take `CCSC(=N)N` [S-ethylisothiourea]: the “effect on airway inflammation” value with airway inflammation is listed as “suppressed airway inflammation”.

In the case of `N=C(N)NN` [amino-guanidine], the “inhibition of exhaled NO” value with exhaled NO is reported as “approximately 70%”.
